One molecule from publication PMC7414126 (Scientific Reports, 2020) can be followed below.

The target in series [1] is T1, hH2R (Homo sapiens, UniProt P25021). Put plainly: β-Arrestin2 recruitment assay (split-luciferase complementation), HEK293T-ARRB2-H2R cells. It is filed as cell-based. Further details: expressed in transfected cells; host or cells: HEK293T-ARRB2-H2R cell line. The settings on record: read-out: pKb (β-arrestin2 recruitment) (converted). A general note: Arrestin recruitment assays detect the binding of arrestin to an activated receptor.
Protocol: One day prior to the experiment, the cells were detached with trypsin/EDTA (0.05%/0.2%) and were centrifuged (500 x g, 5 min). The cells were resuspended in Leibovitz’ L-15 medium + 5% FCS + 10 mM HEPES and the density of the suspension was adjusted to 1.25 x 10^6 cells/mL (agonist mode) or 1.4 x 10^6 cells/mL (antagonist mode). 80 µL (agonist mode) or 70 µL (antagonist mode) of the cell suspension were seeded in white, tissue culture-treated, flat bottom 96-well microtiter plates (Brand, Wertheim, Germany). The cells were incubated at 37 °C overnight in a water saturated atmosphere w/o additional CO2. […] In the meantime, serial dilutions of the tested compounds (10-fold concentrated with respect to the final concentration) were prepared in L-15 + 10 mM HEPES and pre-warmed to 37 °C. After the baseline-read, the dilutions of the test compounds (10 µL/well) were transferred to the 96-well plate. […] For the determination of antagonism, the dilutions of the test compounds (10 µL/well) were transferred to the 96-well plate directly after the addition of D-luciferin (as described above) and the baseline was recorded like in the agonist mode. […] Normalized data were fitted applying a four-parameter logistic fit yielding pIC50 values, which were then transformed into pKb values using the Cheng-Prusoff equation.^8 All data analysis was performed using Prism 5.0c (GraphPad, San Diego, CA, USA).

For the next series, the target named is T2, NLuc-hH2R (Homo sapiens, UniProt P25021).
T2 construct: membrane signal peptide of the murine 5HT3A receptor (N); expressed in transfected cells
Put plainly: NanoBRET saturation binding assay. On the procedure:
KG, Wertheim, Germany). The cells were then incubated at 37 °C in a humidified atmosphere (no additional CO2) overnight. […] After 60 min incubation time at 27 °C, 10 μL of the substrate furimazine, which was diluted according to manufacturer's protocol beforehand, were added. After 5 min of equilibration time at 27 °C, the measurement was started. […] After addition of the diluted substrate, the plate was placed inside the reader for 5 min to equilibrate. […] Dissociation experiments were conducted in wells, which have been preincubated with 8 as described above for association experiments. […] All measurements were performed on a TECAN InfiniteLumi plate reader (TECAN, Grödig, Austria) at 27 °C using the Blue2 NB (460 nm ± 35 nm, bandpass) and the Red NB (> 610 nm, longpass) filter combination with an integration time of 100 ms. For the kinetic experiments, integration time was increased to 500 ms for both channels to reduce noise. BRET ratios were calculated by dividing the acceptor emission (red NB) by the donor luminescence (Blue2 NB). For all BRET binding experiments, specific binding was calculated by subtracting non-specific binding from total binding yielding the “corrected BRET ratio”. For saturation binding experiments, total and non-specific binding were fitted simultaneously using the “one-site total and nonspecific binding” fit. Specific binding was fitted accordingly applying the “one-site specific binding” fit. […] The normalized competition binding curves were then fitted with a four-parameter logistic fit yielding pIC50-values. These were transformed into pKi-values using the Cheng-Prusoff equation[38].
For orientation: Bioluminescence resonance energy transfer reports proximity on the nanometre scale.

Series [2] concerns the target T1, hH2R. As to the kind of experiment: Flow cytometric saturation binding assay with HEK293T-hH2R-qs5-HA cells. Further details: expressed in transfected cells; host or cells: HEK293T-hH2R-qs5-HA cells. The settings on record: saturation binding at HEK293T-hH2R-qs5-HA cells; mean ± SEM; read-out: pKd (Flow cytometry) (converted). On the procedure:
All flow cytometric measurements were performed with FACSCanto™II flow cytometer (Becton Dickinson, Heidelberg, Germany), equipped with an argon laser (488 nm) and a red diode laser (633 nm) (settings: FCS: A, log, 0 V; SSC: A, log, 252 V; ACP: A,H,W, log, 350 V or PerCP-Cy5-5: A,H, log 485 V or PE: A,H,W, log, 420 V) according to general protocols with minor modifications.^4,5 All measurements were performed in duplicate and recorded either in channel PerCP-Cy5 (Py-1, excitation: 488 nm), APC (BODIPY 630/650, excitation: 633 nm) or PE (TAMRA, excitation: 488 nm). Data acquisition was stopped after 10,000 gated events.
Cell culture and preparation of HEK293T-hH2R-qs5-HA cells was performed as described.^4 Briefly, cells were maintained in 25 or 175 cm^2 flasks (Sarstedt, Nümbrecht, Germany) in a humidified atmosphere (95% air, 5% CO2) at 37 °C using Dulbecco`s Modified Eagle`s Medium supplemented with 2 mM L-glutamine (Sigma-Aldrich, Munich, Germany), 10% FCS, 400 µg/mL geneticin (G418), and 100 µg/mL hygromycin B (AG Scientific, San Diego, CA, USA). On the day of the experiment, cells were detached with trypsin/EDTA (0.05%/0.2%) and centrifuged (500 x g, 5 min). The cell pellet was resuspended in Leibovitz’ L-15 medium containing 1% FCS and the cell density was adjusted to 1 x 10^6 cells/mL. The serial dilutions of the tested fluorescent ligands and famotidine (competitor, for non-specific binding) were prepared in DMSO/H2O (1:1, v/v). All incubation steps were performed in 96-well Primaria^TM plates (CORNING, NY, USA). 200 µL of the adjusted cell suspension were either added to 2 µL of DMSO/H2O (1:1, v/v, total binding) or to 2 µl of famotidine (300-fold excess over the fluorescent ligand, non-specific binding). Incubation was started by addition of 2 µL of the respective fluorescent ligand in different concentrations (100-fold concentrated with respect to the final concentration). […] Samples were transferred to 5 mL polystyrol FACS tubes (Sarstedt, Nümbrecht, Germany) and measured immediately. […]
In general terms: Flow cytometry measures light scatter and fluorescence of single cells or particles in a stream.

Series [3] is described as follows: Chemical stability in binding buffer (HPLC). As to conditions: binding buffer pH 7.4, rt, 96 h incubation. It is filed as physicochemical. On the procedure: The chemical stability of the fluorescent H2R ligands UR-KAT478 (8), UR-KAT515 (9) and UR-KAT514 (10) was investigated at physiological pH (7.4) in binding buffer (12.5 mM MgCl2, 1 mM EDTA and 75 mM Tris/HCl, pH 7.4)^1 and in case of UR-KAT514 (10) as well in a mixture of DMSO/binding buffer 1:1. Incubation was started by addition of 27.5 μL of a 2.5 mM solution of the respective compounds in DMSO/Millipore H2O 1:1, which were freshly prepared from a 5 mM stock solution in DMSO, to 522.5 μL of binding buffer or DMSO/binding buffer 1:1 yielding a final concentration of […]. The samples were shaken for up to 4 days at 700 rpm. After indicated time periods, a 70 μL aliquot was taken and diluted with 70 µL of a mixture of MeCN, Millipore H2O and 10% aqueous TFA (60:90:1). Prior to HPLC analysis, the samples were stored at -20 °C. 50 μL of the resulting solution were analyzed by HPLC as described in the experimental section. The absorption was detected at 220 nm. The blank HPLC run was performed under identical conditions without any ligand.

pKd: −log10 of the molar value. Read-outs that look alike come from different tables or passages of the source.

T1 sequence (P25021 whole entry): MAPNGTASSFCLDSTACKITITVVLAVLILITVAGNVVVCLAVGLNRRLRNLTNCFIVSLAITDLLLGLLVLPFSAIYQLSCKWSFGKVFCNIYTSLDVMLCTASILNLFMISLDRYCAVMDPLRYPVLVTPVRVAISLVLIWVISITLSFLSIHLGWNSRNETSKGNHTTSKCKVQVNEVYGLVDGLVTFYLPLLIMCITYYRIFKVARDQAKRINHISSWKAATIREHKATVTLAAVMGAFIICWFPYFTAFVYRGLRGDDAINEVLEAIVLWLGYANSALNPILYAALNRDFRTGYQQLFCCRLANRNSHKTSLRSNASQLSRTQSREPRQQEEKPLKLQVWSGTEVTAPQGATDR
T2 sequence (P25021 whole entry): as above

`Cc1cc(/C=C/c2cc3c4c(c2)CCCN4CCC3)cc(C)[n+]1CCCCNc1c(NCCCOc2cccc(CN3CCCCC3)c2)c(=O)c1=O` [Compound 8, (E)-1-(4-((3,4-Dioxo-2-((3-(3-(piperidin-1-ylmethyl)phenoxy)propyl)amino)cyclobut-1-en-1-yl)amino)butyl)-2,6-dimethyl-4-(2-(2,3,6,7-tetrahydro-1H,5H-pyrido[3,2,1-ij]quinolin-9-yl)vinyl)pyridin-1-ium]: at hH2R [1], the Kb was 16.6 nM. The negative logarithm of the Kd (pKd) – broadly, the Kd on a negative log10 scale, so that one unit is a factor of ten – on NLuc-hH2R (representative NanoBRET saturation isotherm, result from single experiment, HEK293T NLuc-hH2R, read-out: Kd* (single experiment)) was 7.53. The Kd is 44.7 nM on NLuc-hH2R (saturation binding, live HEK293T cells stably expressing NLuc-hH2R, mean ± SEM, read-out: pKd (NanoBRET) (converted)) and 74.1 nM on hH2R [2]. Besides, the “Chemical stability (decomposition)” value in series [3] is listed as “no decomposition”.
